Measured values reported in ChEMBL document CHEMBL1132019, “RNA-aminoglycoside antibiotic interactions: fluorescence detection of binding and conformational change” (Bioorg Med Chem Lett, 1999).

Key:
[1] = Compound was evaluated for the apparent first-order binding constant (K) at a concentration of 90 uM to 5 mM
[2] = Compound was evaluated for the apparent second-order binding constant (K) at a concentration of 90 uM to 5 mM
[3] = Compound was tested for inhibition against hammer head ribozyme complex (HH16-F)

Q: For `NC[C@@H]1O[C@H](O[C@H]2[C@@H](O)[C@H](O[C@@H]3[C@@H](O)[C@H](N)C[C@H](N)[C@H]3O[C@H]3O[C@H](CN)[C@@H](O)[C@H](O)[C@H]3N)O[C@@H]2CO)[C@H](N)[C@@H](O)[C@@H]1O` [FRAMYCETIN], which K [1] is on record?
A: Its K is 4 M⁻¹.

Q: What about the K [2] of the same molecule?
A: The K was 8 M-2.

Q: And the Ki [3]?
A: The Ki was 13.5 µM.
